Assay results as given in patent US20210244814A1, “COMBINATION OF METFORMIN AND CYCLOPHOSPHAMIDE AS AN ADJUVANT IN CANCER IMMUNOTHERAPY” (UNIVERSITÉ CATHOLIQUE DE LOUVAIN, priority 2018, published 2021).

Columns and labels:
[1] = test system: TiRP mice (genetically engineered mouse melanoma model); experiment: Tumor growth, tumor weight and survival of TiRP mice with or without ACT; type: in vivo; settings: for tumor response to the immunotherapy (tumor growth) / tumor growth and tumor weight 14 days after ACT / tumor growth in the presence of ACT: TiRP mice with ACT; for tumor response to the immunotherapy (tumor growth): up to 22 days after ACT, FIG. 6A; for tumor growth and tumor weight 14 days after ACT: CTX 100 mg/kg the day before ACT and/or metformin 0.5 mg/ml for 14 days, FIG. 5; for tumor growth in the presence of ACT / tumor growth in absence of ACT: FIG. 7; for tumor growth in absence of ACT: TiRP mice without ACT
Description: (§1) TiRP mice have been created by crossing Ink4a/Arf^flox/flox mice with mice carrying a transgenic construct controlled by the tyrosinase promoter and driving the expression of H-Ras^12V and Trap 1 a which encodes a MAGE-type tumor antigen P1A; the promoter is separated from the coding region by a stop cassette made of a floxed self-deleting CreER (Huijbers et al., 2006, Cancer Res 66, 3278-3286). Those mice were backcrossed to a B10.D2 background and bred to homozygosity. TCRP1A mice heterozygous for the H-2Ld/P1A35-43-specific TCR transgene were kept on the B10.D2;Rag1^−/− background (Shanker et al., 2004, J Immunol 172, 5069-5077).
(§2) A fresh solution of 4OH-Tamoxifen was prepared by dissolving 4OH-Tamoxifen (Imaginechem) in 100% ethanol and mineral oil (ratio 1:9) followed by 30-min sonication, and injected subcutaneously (2 mg/200 μl per mouse) in the neck area of gender-matched 7 weeks old TiRP mice. Tumor appearance was monitored daily and tumors were measured three times/week. Tumor volume (in mm^3) was calculated by the following formula: Volume=width^2×length×π/6. Tumor-bearing TiRP mice were randomized based on the tumor size when average volume was 500 mm^3 and treated as indicated. For cyclophosphamide (CTX, Sigma C7397) treatment, mice received an intra-peritoneal injection of CTX at 100 mg/kg or vehicle (PBS) 24 h before adoptive cell transfer. For metformin treatment, metformin (Enzo, ALX-270-432) was dissolved in mice drinking water at a concentration of 0.5 mg/ml and administered to the mice from the moment of adoptive cell transfer until the end of the experiment; the solution was replaced three times/week.
(§3) For the adoptive cell transfer (ACT), P1A-specific (TCRP1A) CD8^+ T cells were isolated from spleens and lymph nodes of TCRP1A mice using anti-mouse CD8α (Ly-2) MicroBeads (Miltenyi Biotec), and stimulated in vitro by co-culture with irradiated (10.000 rads) L1210.P1A.B7-1 cells (Gajewski et al., 1995, J Immunol 154, 5637-5648) at 1:2 ratio (0.5×10^5 CD8^+ T cells and 10^5 L1210.P1A.B7-1 cells per well in 48-well plates) in IMDM (GIBCO) containing 10% fetal bovine serum supplemented with L-arginine (0.55 mM, Merck), L-asparagine (0.24 mM, Merck), glutamine (1.5 mM, Merck), betamercaptoethanol (50 μM, Sigma), 50 Uml^−1 penicillin and […] streptomycin (Life Technologies). Four days later, TCRP1A CD8^+ T cells were purified on a Lymphoprep gradient (StemCell) and 10^7 living cells were injected intravenously in 200 μl PBS in TiRP-tumor bearing mice.
Data entry and all analyses were performed in a blinded fashion. All statistical analyses were performed using GraphPad Prism software. Statistical significance was calculated by two-tailed unpaired t-test on two experimental conditions or two-way analysis of variance (ANOVA) when repeated measures were compared, with p<0.05 considered statistically significant. Independent experiments were pooled and analyzed together whenever possible. All graphs show mean values±s.e.m.

B16F1 melanoma tumors = experiment: B16F1 melanoma tumor growth with anti-PD-1 antibody or isotype control; type: in vivo, mice; settings: FIG. 8A; for growth of B16F1 melanoma tumors, single treatment: B6 mice
Description: (§4) Gender and age matched […] wild-type mice were used for the experiments with checkpoint inhibitors.
(§5) For the experiments with checkpoint inhibitors, gender matched, 7-9 weeks old […] wild-type mice were subcutaneously injected with 1 million of B16F1 or MC38 tumor cells. Mice were randomized based on the tumor size one week after the injection of tumor cells (B16F1 melanoma model) or when the average tumor size was between 90 and 120 mm^3 (MC38 colon carcinoma model). Tumor-bearing mice were then treated with CTX or PBS as described above. One day after, metformin was prepared as mentioned above and added to the mice drinking water until the end of the experiment. A dose of 100 μg/mouse of anti-PD-1 antibody (clone RMP1-14, Bio-X-Cell) or RatIgG2a isotype (clone 2A3, Bio-X-Cell) was injected intraperitoneally three times (B16F1 model) or four times (MC38 model) every three or four days starting from the day after CTX or PBS treatment.

[2] = test system: TCRP1A CD8^+ T cells, Treg cells and PMN-MDSCs infiltrating TiRP tumors; experiment: FACS analysis of tumor-infiltrating cells in TiRP-tumor bearing mice after adoptive cell transfer (ACT); type: in vivo; settings: for tumor infiltration of the transferred TCRP1A CD8+ T cells / survival of the transferred TCRP1A CD8+ T cells (apoptosis, annexin V): 14 days after ACT, CTX 100 mg/kg one day before ACT and/or metformin 0.5 mg/ml drinking water; for tumor infiltration of the transferred TCRP1A CD8+ T cells: FIG. 3A; for survival of the transferred TCRP1A CD8+ T cells (apoptosis, annexin V): FIG. 3B
Description: as §1, §2, §3
For hypoxia detection, mice received an intraperitoneal injection of pimonidazole hydrochloride at 60 mg/kg (Hypoxyprobe) 45 minutes before tumor harvesting. Tumor single cell suspension was prepared using gentleMACS Dissociator and incubating the tissue in RMPI containing 0.04% collagenase I, 0.04% collagenase II and 0.05% dispase (all from GIBCO) for 1 hour at 37° C. After passing the cell suspension through a 70 μm- and 40 μm-cell strainer, red blood cell lysis was performed (eBioscience, 00-4300-54). Tumor cell preparation was stained with the Viability dye eFluor780 (eBioscience, 1:1000) to identify dead cells during the FACS analysis, and then incubated with Mouse BD Fc Block (BD, clone 2.4G2, 1:100) in PBS supplemented with 2% FBS and 2 mM EDTA. TCRP1A CD8^+ T cells were labeled by using H-2L^d PIA tetramer-PE (1 μM, produced in-house at the Ludwig Institute for Cancer Research) and anti-CD8α BV-421 (BioLegend, 53-6.7, 1:200); for apoptosis quantification, Annexin V APC (BioLegend, 1:20) was used. Hypoxic cells were identified with the anti-pimonidazole antibody (Hypoxyprobe, HP-FITC-Mab 4.3.11.3, 1:100) after cell fixation and permeabilization according to manufacturer's instructions (eBioscience Transcription Factor Staining Buffer Set).

MC38 colon carcinoma = MC38 colon carcinoma tumor rejection with anti-PD-1 antibody; type: in vivo, mice; settings: MC38, 16 days after treatment, associated with the PD-1 inhibitor; FIG. 9B-D
Description: as §4, §5

SMILES | tumor response to the immunotherapy (tumor growth) [1] | tumor growth and tumor weight 14 days after ACT [1] | tumor growth in the presence of ACT [1] | tumor growth in absence of ACT [1] | growth of B16F1 melanoma tumors, single treatment (B16F1 melanoma tumors) | tumor infiltration of Treg cells ([2]; 4 days after ACT, single injection of CTX 100 mg/kg one day before ACT, FIG. 2A) | tumor infiltration of PMN-MDSCs ([2]; 4 days after ACT, single injection of CTX 100 mg/kg one day before ACT, FIG. 2B) | tumor infiltration of the transferred TCRP1A CD8+ T cells [2] | survival of the transferred TCRP1A CD8+ T cells (apoptosis, annexin V) [2] | mice that had rejected the tumor (MC38 colon carcinoma) | tumor response to the PD-1 inhibitor (B16F1 melanoma tumors; B16F1, associated with anti-PD-1 antibody 100 μg on day 0, 3, 7, C, D) | infiltration of TCRP1A CD8^+ T cells in the tumor ([2]; 4 days after ACT, metformin 0.5 mg/ml in drinking water from ACT, vs vehicle, FIG. 1A) | recruitment of TCRP1A CD8^+ T cells to the hypoxic regions of the tumor ([2]; 4 days after ACT, metformin 0.5 mg/ml in drinking water, pimonidazole-positive, FIG. 1B)
O=P1(N(CCCl)CCCl)NCCCO1 (stereo not drawn) [cyclophosphamide, 2-[bis(2-chloroethyl)amino]-1,3,2λ^5-oxazaphosphinan-2-one] | did induce a significant tumor response | allowed an inhibition of the tumor growth | tumor response was improved by the immunotherapy | significantly reduced tumor growth | induced per se a significant tumor response | reduced | reduced | increase | increase | 40% |  |  | 
CN(C)C(=N)N=C(N)N [metformin, 3-(diaminomethylidene)-1,1-dimethylguanidine] | did not seem to induce a significant tumor response | seemed to partially reduce tumor growth | did not inhibit tumor growth | did not inhibit tumor growth | not significantly affected |  |  | increased tumor infiltration | increased survival | 20% | did not seem to induce a significant tumor response | significantly increased | allowed the recruitment
